Source: ChEMBL document CHEMBL5537166, “PROTACs Targeting BRM (SMARCA2) Afford Selective In Vivo Degradation over BRG1 (SMARCA4) and Are Active in BRG1 Mutant Xenograft Tumor Models” (J Med Chem, 2024)
Activity calls are given as the source filed them. No cut-off for these calls is given here.

How the values were obtained:
NCI-H1944 = assay: Antiproliferative activity against BRM-dependent human NCI-H1944 cells assessed as growth inhibition incubated for 7 days by celltiter glo 2.0 assay; type: functional; details: NCI-H1944, 168 h, time 7 day
Calu-6 = assay: Antiproliferative activity against human Calu-6 cells assessed as growth inhibition incubated for 7 days by celltiter glo 2.0 assay; type: functional; details: Calu-6, 168 h, time 7 day
[1] = Plasma protein binding in mouse incubated for 15 mins by LC-MS/MS analysis; type: ADME, cell-free; details: read-out: PPB (converted)
[2] = Clearance in mouse at 1 mg/kg, iv measured upto 60 mins by LC-MS/MS analysis; type: ADME, organism-based; details: in vivo, 1 h
[3] = Half life in mouse at 1 mg/kg, iv measured upto 60 mins by LC-MS/MS analysis; type: ADME, organism-based; details: in vivo
[4] = Drug concentration in mouse plasma measured for 24 hrs; type: ADME, cell-free
HCC2302 [5] = assay: Antitumor activity against human BRM-dependent HCC2302 cells xenografted in CD-1 mouse assessed as reduction in tumor growth at 10 to 30 mg/kg, ip administered once daily for 11 days; type: functional, organism-based; details: dose 10-30 mg/kg, time 11.0 day
[6] = Toxicity in CD-1 mouse xenografted with BRM-dependent human HCC2302 cells assessed as body weight loss at 10 to 30 mg/kg, ip administered once daily for 11 days; type: organism-based; details: in vivo, 264 h, dose 10-30 mg/kg, time 11 day
[7] = Toxicity in CD-1 mouse xenografted with BRM-dependent human HCC2302 cells assessed as animal death at 10 to 30 mg/kg, ip measured at 9 to 13 days; type: organism-based; details: in vivo, dose lower 10 mg/kg, time lower 9 day, dose upper 30 mg/kg, time upper 13 day
[8] = Toxicity in CD-1 mouse xenografted with BRM-dependent human HCC2302 cells assessed as animal survival at 10 mg/kg, ip measured at 15 days; type: organism-based; details: in vivo, 360 h, time 15 day
[9] = Toxicity in CD-1 mouse xenografted with BRM-dependent human HCC2302 cells assessed as tolerability at 10 mg/kg, ip measured at 15 days; type: organism-based; details: in vivo, 360 h, time 15 day
SW1573 [10] = assay: Induction of PALS1 degradation in human SW1573 cells at 100 nM incubated for 8 hrs by proteomics analysis; type: cell-based
SW1573 [11] = assay: Induction of PATJ degradation in human SW1573 cells at 100 nM incubated for 8 hrs by proteomics analysis; type: cell-based
[12] = target: MAP kinase-activated protein kinase 3 (Homo sapiens) (UniProt Q16644); assay: Induction of MAPKAPK3 degradation in human SW1573 cells at 100 nM incubated for 8 hrs by proteomics analysis; type: cell-based
MAP kinase-activated protein kinase 3 (Homo sapiens), sequence (Q16644 whole entry, looked up): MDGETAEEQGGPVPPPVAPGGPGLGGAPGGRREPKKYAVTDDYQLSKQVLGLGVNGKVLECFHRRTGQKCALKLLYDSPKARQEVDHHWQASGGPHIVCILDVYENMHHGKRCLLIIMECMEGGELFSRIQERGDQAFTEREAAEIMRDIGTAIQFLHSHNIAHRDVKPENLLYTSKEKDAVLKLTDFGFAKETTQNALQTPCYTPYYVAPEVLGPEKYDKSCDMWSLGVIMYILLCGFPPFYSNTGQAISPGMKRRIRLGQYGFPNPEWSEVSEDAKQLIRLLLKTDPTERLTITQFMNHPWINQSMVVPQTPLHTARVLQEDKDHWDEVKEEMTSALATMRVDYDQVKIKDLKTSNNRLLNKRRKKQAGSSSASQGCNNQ

[13] = target: Urokinase-type plasminogen activator (Homo sapiens) (UniProt P00749); assay: Induction of PLAU degradation in human SW1573 cells at 100 nM incubated for 8 hrs by proteomics analysis; type: cell-based
[14] = target: Protein polybromo-1 (Homo sapiens) (UniProt Q86U86); assay: Induction of PBRM1 degradation in human SW1573 cells at 100 nM incubated for 8 hrs by proteomics analysis; type: cell-based
Protein polybromo-1 (Homo sapiens), sequence (Q86U86 whole entry): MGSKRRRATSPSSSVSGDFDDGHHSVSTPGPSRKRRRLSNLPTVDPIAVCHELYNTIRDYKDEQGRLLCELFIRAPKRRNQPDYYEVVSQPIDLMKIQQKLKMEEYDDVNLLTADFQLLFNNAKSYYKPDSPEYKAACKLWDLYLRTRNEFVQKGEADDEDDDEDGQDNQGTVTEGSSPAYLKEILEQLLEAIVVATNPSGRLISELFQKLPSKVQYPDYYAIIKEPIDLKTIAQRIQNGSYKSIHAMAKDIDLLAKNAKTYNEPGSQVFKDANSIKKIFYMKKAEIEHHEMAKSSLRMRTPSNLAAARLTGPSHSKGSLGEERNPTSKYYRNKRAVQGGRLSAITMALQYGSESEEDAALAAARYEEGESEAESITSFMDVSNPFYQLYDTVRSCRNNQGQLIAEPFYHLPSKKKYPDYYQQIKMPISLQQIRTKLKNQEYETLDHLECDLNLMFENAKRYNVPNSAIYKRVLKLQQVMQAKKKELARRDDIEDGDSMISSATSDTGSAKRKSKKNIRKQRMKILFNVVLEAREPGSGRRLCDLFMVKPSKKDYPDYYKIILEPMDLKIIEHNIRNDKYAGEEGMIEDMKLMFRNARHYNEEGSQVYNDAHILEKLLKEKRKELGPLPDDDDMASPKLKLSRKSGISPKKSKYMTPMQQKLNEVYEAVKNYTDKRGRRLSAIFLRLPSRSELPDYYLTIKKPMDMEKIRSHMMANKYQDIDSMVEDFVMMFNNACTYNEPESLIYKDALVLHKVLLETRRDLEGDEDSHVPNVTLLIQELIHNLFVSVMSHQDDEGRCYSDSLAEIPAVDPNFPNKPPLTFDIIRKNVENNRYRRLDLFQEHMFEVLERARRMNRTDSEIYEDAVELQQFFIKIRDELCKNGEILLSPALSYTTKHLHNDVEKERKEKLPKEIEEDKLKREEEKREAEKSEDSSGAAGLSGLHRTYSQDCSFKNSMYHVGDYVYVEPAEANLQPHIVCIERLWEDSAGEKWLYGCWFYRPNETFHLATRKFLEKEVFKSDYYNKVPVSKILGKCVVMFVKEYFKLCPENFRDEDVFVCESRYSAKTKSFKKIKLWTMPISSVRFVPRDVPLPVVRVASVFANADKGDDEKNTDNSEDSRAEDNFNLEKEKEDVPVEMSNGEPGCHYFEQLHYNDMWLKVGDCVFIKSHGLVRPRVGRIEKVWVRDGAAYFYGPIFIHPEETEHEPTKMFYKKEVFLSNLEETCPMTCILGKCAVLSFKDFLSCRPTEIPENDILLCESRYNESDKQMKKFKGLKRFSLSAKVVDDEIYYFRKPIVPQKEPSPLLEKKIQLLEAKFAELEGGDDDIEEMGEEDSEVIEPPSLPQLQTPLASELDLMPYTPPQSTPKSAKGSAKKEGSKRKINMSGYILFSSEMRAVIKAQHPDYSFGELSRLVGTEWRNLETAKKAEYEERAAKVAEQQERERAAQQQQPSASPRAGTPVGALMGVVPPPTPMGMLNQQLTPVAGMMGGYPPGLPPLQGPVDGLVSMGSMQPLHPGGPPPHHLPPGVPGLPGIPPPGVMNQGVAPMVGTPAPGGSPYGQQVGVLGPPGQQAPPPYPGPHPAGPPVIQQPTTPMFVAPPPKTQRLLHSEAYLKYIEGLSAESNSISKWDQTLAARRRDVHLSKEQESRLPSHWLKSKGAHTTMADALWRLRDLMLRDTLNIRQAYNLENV

Mus musculus [15] = assay: In-vivo PROTAC activity at BRM/VHL in CD-1 mouse xenografted with human HCC2302 cells at 20 mg/kg, iv measured for 96 hrs; type: functional
Mus musculus [16] = assay: In-vivo PROTAC activity at BRM/VHL in CD-1 mouse xenografted with Murine stromal cell line at 20 mg/kg, iv measured for 96 hrs; type: functional
[17] = Drug concentration in mouse tumor at 20 mg/kg, ip measured for 96 hrs; type: ADME, organism-based, Neoplasm; details: read-out: Ct
[18] = Clearance in CD-1 mouse at 10 mg/kg, iv measured for 24 hrs; type: ADME, organism-based; details: in vivo
[19] = Clearance in CD-1 mouse at 30 mg/kg, iv measured for 24 hrs; type: ADME, organism-based; details: in vivo
[20] = Volume of distribution in CD-1 mouse at 10 mg/kg, iv measured for 24 hrs; type: ADME, organism-based; details: in vivo
[21] = Volume of distribution in CD-1 mouse at 30 mg/kg, iv measured for 24 hrs; type: ADME, organism-based; details: in vivo
[22] = Half life in CD-1 mouse at 10 mg/kg, iv measured for 24 hrs; type: ADME, organism-based; details: in vivo
[23] = Half life in CD-1 mouse at 30 mg/kg, iv measured for 24 hrs; type: ADME, organism-based; details: in vivo
[24] = Initial plasma concentration in CD-1 mouse at 10 mg/kg, iv measured for 24 hrs; type: ADME, organism-based
[25] = Initial plasma concentration in CD-1 mouse at 30 mg/kg, iv measured for 24 hrs; type: ADME, organism-based
[26] = AUClast in CD-1 mouse at 10 mg/kg, iv measured for 24 hrs; type: ADME, organism-based; details: in vivo
[27] = AUClast in CD-1 mouse at 30 mg/kg, iv measured for 24 hrs; type: ADME, organism-based; details: in vivo
[28] = Toxicity in CD-1 mouse xenografted with BRM-dependent human HCC2302 cells assessed as body weight loss at 10 mg/kg, ip administered once daily for 7 days; type: organism-based; details: in vivo, 168 h, time 7 day
[29] = Toxicity in CD-1 mouse xenografted with BRM-dependent human HCC2302 cells assessed as animal death at 10 mg/kg, ip administered once daily for 7 days; type: organism-based; details: in vivo, 168 h, time 7 day
HCC2302 [30] = assay: Antitumor activity against human BRM-dependent HCC2302 cells xenografted in CD-1 mouse assessed as tumor growth inhibition at 20 mg/kg, ip administered twice per week for 21 days; type: functional, organism-based; details: time 21.0 day
[31] = Toxicity in CD-1 mouse xenografted with BRM-dependent human HCC2302 cells assessed as body weight loss at 20 mg/kg, ip administered twice per week for 21 days; type: organism-based; details: in vivo, 504 h, time 21 day
HCC2302 [32] = assay: Antitumor activity against human BRM-dependent HCC2302 cells xenografted in CD-1 mouse assessed as tumor growth inhibition at 10 mg/kg, iv administered twice per week for 21 days; type: functional, organism-based; details: time 21.0 day
HCC2302 [33] = assay: Antitumor activity against human BRM-dependent HCC2302 cells xenografted in CD-1 mouse at 30 mg/kg, iv administered twice per week for 11 days; type: functional, organism-based; details: time 11.0 day
Mus musculus [34] = assay: In-vivo PROTAC activity at BRM/VHL in CD-1 mouse xenografted with human HCC2302 cells assessed as reduction in BRM level in tumor at 10 mg/kg, iv administered twice weekly for 7 times for 21 days and measured after 24 hrs post dose by Western blot analysis; type: functional; set-up: scale not given: the % may be the effect or the level left; details: time 22 day
Mus musculus [35] = assay: In-vivo PROTAC activity at BRM/VHL in CD-1 mouse xenografted with human HCC2302 cells assessed as reduction in BRM level in tumor at 20 mg/kg, iv administered twice weekly for 7 times for 21 days and measured after 24 hrs post dose by Western blot analysis; type: functional; set-up: scale not given: the % may be the effect or the level left; details: time 22 day
Mus musculus [36] = assay: In-vivo PROTAC activity at BRM/VHL in CD-1 mouse xenografted with human HCC2302 cells assessed as reduction in BRM level in tumor at 30 mg/kg, iv administered 7 times and measured after 96 hrs by Western blot analysis; type: functional; set-up: scale not given: the % may be the effect or the level left
Mus musculus [37] = assay: In-vivo PROTAC activity at BRG1 /VHL in CD-1 mouse xenografted with human HCC2302 cells assessed as reduction in BRG1 level in tumor at 10 mg/kg, iv administered twice weekly for 7 times for 21 days and measured after 24 hrs post dose by Western blot analysis; type: functional; set-up: scale not given: the % may be the effect or the level left; details: time 22 day
Mus musculus [38] = assay: In-vivo PROTAC activity at BRG1 /VHL in CD-1 mouse xenografted with human HCC2302 cells assessed as reduction in BRG1 level in tumor at 20 mg/kg, iv administered twice weekly for 7 times for 21 days and measured after 24 hrs post dose by Western blot analysis; type: functional; set-up: scale not given: the % may be the effect or the level left; details: time 22 day
Mus musculus [39] = assay: In-vivo PROTAC activity at BRG1 /VHL in CD-1 mouse xenografted with human HCC2302 cells assessed as reduction in BRG1 level in tumor at 30 mg/kg, iv administered 7 times and measured after 96 hrs by Western blot analysis; type: functional; set-up: scale not given: the % may be the effect or the level left
HCC2302 [40] = assay: Antitumor activity against human BRM-dependent HCC2302 cells xenografted in CD-1 mouse assessed as suppression of KRT80 mRNA level at 10 mg/kg, iv administered twice weekly for 7 times for 21 days and measured after 24 hrs post dose; type: functional; details: time 22 day
HCC2302 [41] = assay: Antitumor activity against human BRM-dependent HCC2302 cells xenografted in CD-1 mouse assessed as suppression of KRT80 mRNA level at 20 mg/kg, iv administered twice weekly for 7 times for 21 days and measured after 24 hrs post dose; type: functional; details: time 22 day
HCC2302 [42] = assay: Antitumor activity against human BRM-dependent HCC2302 cells xenografted in CD-1 mouse assessed as suppression of KRT80 mRNA level at 30 mg/kg, iv administered 7 times and measured after 96 hrs; type: functional
HCC2302 [43] = assay: Antitumor activity against human BRM-dependent HCC2302 cells xenografted in CD-1 mouse assessed as suppression of PLAU mRNA level at 10 mg/kg, iv administered twice weekly for 7 times for 21 days and measured after 24 hrs post dose; type: functional; details: time 22 day
HCC2302 [44] = assay: Antitumor activity against human BRM-dependent HCC2302 cells xenografted in CD-1 mouse assessed as suppression of PLAU mRNA level at 20 mg/kg, iv administered twice weekly for 7 times for 21 days and measured after 24 hrs post dose; type: functional; details: time 22 day
HCC2302 [45] = assay: Antitumor activity against human BRM-dependent HCC2302 cells xenografted in CD-1 mouse assessed as suppression of PLAU mRNA level at 30 mg/kg, iv administered 7 times and measured after 96 hrs; type: functional
HCC2302 [46] = assay: Antitumor activity against human BRM-dependent HCC2302 cells xenografted in CD-1 mouse assessed as tumor growth inhibition at 10 mg/kg, iv administered twice weekly for 7 times for 21 days and measured after 24 hrs post dose; type: functional; details: HCC2302, 528 h, time 22 day, read-out: TGI
HCC2302 [47] = assay: Antitumor activity against human BRM-dependent HCC2302 cells xenografted in CD-1 mouse assessed as tumor growth inhibition at 20 mg/kg, iv administered twice weekly for 7 times for 21 days and measured after 24 hrs post dose; type: functional; details: HCC2302, 528 h, time 22 day, read-out: TGI
HCC2302 [48] = assay: Antitumor activity against human BRM-dependent HCC2302 cells xenografted in CD-1 mouse assessed as tumor growth inhibition at 30 mg/kg, iv administered 7 times and measured after 96 hrs; type: functional; details: read-out: TGI

Cc1ncsc1-c1ccc([C@H](C)NC(=O)[C@@H]2C[C@@H](O)CN2C(=O)[C@@H](c2cc(OCCN3CCC(O[C@H]4C[C@H](Oc5cc(N6C7CCC6CN(c6cc(-c8ccccc8O)nnc6N)C7)ccn5)C4)CC3)no2)C(C)C)cc1
GI50 (NCI-H1944): 0.64 nM | GI50 (Calu-6): 24 nM | fraction unbound at 0.25 h [1]: 0.027 | clearance [2]: 22 mL/min/kg | half-life [3]: 2.6 h | concentration at 24 h [4]: 26 nM | Activity (HCC2302 [5]): Active | Activity [6]: Toxic | Activity [7]: Toxic | Activity [8]: Non-Toxic | Activity [9]: Non-Toxic | Activity (SW1573 [10]): Active | Activity (SW1573 [11]): Active | Activity [12]: Active | Activity [13]: Active | Activity [14]: Active | Activity (Mus musculus [15]): 64% | Activity (Mus musculus [16]): 4% | concentration at 96 h [17]: 158 ng/g

Cc1ncsc1-c1ccc([C@H](C)NC(=O)[C@@H]2C[C@@H](O)CN2C(=O)[C@@H](c2cc(N3CCC(CN4CCC(O[C@H]5C[C@H](Oc6cc(N7C8CCC7CN(c7cc(-c9ccccc9O)nnc7N)C8)ccn6)C5)CC4)CC3)no2)C(C)C)cc1
GI50 (NCI-H1944): 0.58 nM | GI50 (Calu-6): 6.5 nM | fraction unbound at 0.25 h [1]: 0.048 | clearance [2]: 9.6 mL/min/kg | half-life [3]: 16 h | concentration at 24 h [4]: 71 nM | clearance [18]: 16 mL/min/kg | clearance [19]: 15 mL/min/kg | Vd [20]: 6.3 L/kg | Vd [21]: 8.7 L/kg | half-life [22]: 6.6 h | half-life [23]: 8.9 h | C0 at 24 h [24]: 12600 ng/mL | C0 at 24 h [25]: 58000 ng/mL | AUC(0-t) at 24 h [26]: 10200 ng·h/mL | AUC(0-t) at 24 h [27]: 30800 ng·h/mL | Activity [28]: Non-Toxic | Activity [29]: Non-Toxic | Activity (Mus musculus [15]): 82% | Activity (Mus musculus [16]): 22% | concentration at 96 h [17]: 483 ng/g | TGI (HCC2302 [30]): Active | Activity [31]: Non-Toxic | TGI (HCC2302 [32]): inactive | Activity (HCC2302 [33]): Active | Activity (Mus musculus [34]): 81% | Activity (Mus musculus [35]): 99% | Activity (Mus musculus [36]): 97% | Activity (Mus musculus [37]): 30% | Activity (Mus musculus [38]): 47% | Activity (Mus musculus [39]): 84% | Activity (HCC2302 [40]): 25% | Activity (HCC2302 [41]): 71% | Activity (HCC2302 [42]): 72% | Activity (HCC2302 [43]): 91% | Activity (HCC2302 [44]): 98% | Activity (HCC2302 [45]): 97% | inhibition in vivo at 10 mg/kg (HCC2302 [46]): 1% | inhibition in vivo at 20 mg/kg (HCC2302 [47]): 62% | inhibition in vivo at 30 mg/kg (HCC2302 [48]): > 65%
